Assay results from patent US4248863A, “Antibiotics saframycins A, B, C, D and E and process for producing the same” (priority 1977, dated 1981).
Values after ≈ are worked out from the molar mass of the structure shown.

Experiments:
[1] = system: Micrococcus luteus; experiment: Antimicrobial spectrum, MIC (Table 4); type: cell-based; details: 1% glucose nutrient agar, 37° C., 24 or 48 hours
[2] = system: Corynebacterium xerosis; experiment: Antimicrobial spectrum, MIC (Table 4); type: cell-based; details: 1% glucose nutrient agar, 37° C., 24 or 48 hours
[3] = system: Staphylococcus albus; experiment: Antimicrobial spectrum, MIC (Table 4); type: cell-based; details: 1% glucose nutrient agar, 37° C., 24 or 48 hours
[4] = system: Pseudomonas aeruginosa; experiment: Antimicrobial spectrum, MIC (Table 4); type: cell-based; details: 1% glucose nutrient agar, 37° C., 24 or 48 hours
[5] = system: Shigella dysenteriae Shiga; experiment: microbe, parasite or virus in culture; type: cell-based; details: 1% glucose nutrient agar, 37° C., 24 or 48 hours
[6] = system: Klebsiella pneumoniae; experiment: Antimicrobial spectrum, MIC (Table 4); type: cell-based; details: 1% glucose nutrient agar, 37° C., 24 or 48 hours
[7] = system: Staphylococcus citreus; experiment: Antimicrobial spectrum, MIC (Table 4); type: cell-based; details: 1% glucose nutrient agar, 37° C., 24 or 48 hours
[8] = system: Serratia marcescens; experiment: Antimicrobial spectrum, MIC (Table 4); type: cell-based; details: 1% glucose nutrient agar, 37° C., 24 or 48 hours
[9] = system: Penicillium glaucum; experiment: Antimicrobial spectrum, MIC (Table 4); details: Sabouraud.dextrose.agar, 27° C., 48 hours
[10] = system: Mycobacterium phlei; experiment: Antimicrobial spectrum, MIC (Table 4); type: cell-based; details: 3% glycerol nutrient agar for acid-fast bacteria, 37° C., 24 or 48 hours
[11] = system: Corynebacterium dephtheriae; experiment: Antimicrobial spectrum, MIC (Table 4); type: cell-based; details: 1% glucose nutrient agar, 37° C., 24 or 48 hours
[12] = system: Escherichia coli; experiment: Antimicrobial spectrum, MIC (Table 4); type: cell-based; details: 1% glucose nutrient agar, 37° C., 24 or 48 hours
[13] = system: Bacillus subtilis; experiment: Antimicrobial spectrum, MIC (Table 4); type: cell-based; details: 1% glucose nutrient agar, 37° C., 24 or 48 hours
[14] = system: Trichophyton mentagrophytes; experiment: Antimicrobial spectrum, MIC (Table 4); details: Sabouraud.dextrose.agar, 27° C., 72 hours
[15] = system: Nocardia asteroides; experiment: Antimicrobial spectrum, MIC (Table 4); type: cell-based; details: 37° C., 24 or 48 hours
[16] = system: Mucor mucedo; experiment: Antimicrobial spectrum, MIC (Table 4); details: Sabouraud.dextrose.agar, 27° C., 48 hours
[17] = system: Staphylococcus aureus 209P; experiment: Antimicrobial spectrum, MIC (Table 4); type: cell-based; details: 1% glucose nutrient agar, 37° C., 24 or 48 hours
[18] = system: Candida albicans; experiment: Antimicrobial spectrum, MIC (Table 4); details: Sabouraud.dextrose.agar, 27° C., 48 hours
[19] = system: Bacillus cereus; experiment: Antimicrobial spectrum, MIC (Table 4); type: cell-based; details: 1% glucose nutrient agar, 37° C., 24 or 48 hours
[20] = Solubility
[21] = system: Brucella abortus; experiment: microbe, parasite or virus in culture; type: cell-based; details: blood agar, 37° C., 24 or 48 hours
[22] = system: Aspergillus oryzae; experiment: Antimicrobial spectrum, MIC (Table 4); details: Sabouraud.dextrose.agar, 27° C., 48 hours
[23] = system: Mycobacterium avium; experiment: Antimicrobial spectrum, MIC (Table 4); type: cell-based; details: 3% glycerol nutrient agar for acid-fast bacteria, 37° C., 24 or 48 hours
[24] = system: Staphylococcus aureus Smith; experiment: Antimicrobial spectrum, MIC (Table 4); type: cell-based; details: 1% glucose nutrient agar, 37° C., 24 or 48 hours
[25] = system: Salmonella typhimurium; experiment: Antimicrobial spectrum, MIC (Table 4); type: cell-based; details: 1% glucose nutrient agar, 37° C., 24 or 48 hours
[26] = system: Mycobacterium sp. 607; experiment: Antimicrobial spectrum, MIC (Table 4); type: cell-based; details: 3% glycerol nutrient agar for acid-fast bacteria, 37° C., 24 or 48 hours
[27] = system: Aspergillus niger; experiment: Antimicrobial spectrum, MIC (Table 4); details: Sabouraud.dextrose.agar, 27° C., 48 hours
[28] = system: Rhodotorula glutinis; experiment: Antimicrobial spectrum, MIC (Table 4); details: Sabouraud.dextrose.agar, 27° C., 48 hours
[29] = system: Saccharomyces cerevisiae; experiment: Antimicrobial spectrum, MIC (Table 4); details: Sabouraud.dextrose.agar, 27° C., 48 hours
[30] = system: Streptococcus faecalis; experiment: Antimicrobial spectrum, MIC (Table 4); type: cell-based; details: 1% glucose nutrient agar, 37° C., 24 or 48 hours
[31] = system: Staphylococcus salivarius; experiment: Antimicrobial spectrum, MIC (Table 4); type: cell-based; details: 1% glucose nutrient agar, 37° C., 24 or 48 hours
[32] = system: Streptococcus pyogenes; experiment: Antimicrobial spectrum, MIC (Table 4); type: cell-based; details: blood agar, 37° C., 24 or 48 hours
[33] = system: Streptococcus pyogenes 090R; experiment: Antimicrobial spectrum, MIC (Table 4); type: cell-based; details: blood agar, 37° C., 24 or 48 hours

SMILES | MIC [1] [µg/mL] | MIC [2] [µg/mL] | MIC [3] [µg/mL] | MIC [4] [µg/mL] | MIC [5] [µg/mL] | MIC [6] [µg/mL] | MIC [7] [µg/mL] | MIC [8] [µg/mL] | MIC [9] [µg/mL] | MIC [10] [µg/mL] | MIC [11] [µg/mL] | MIC [12] [µg/mL] | MIC [13] [µg/mL] | MIC [14] [µg/mL] | MIC [15] [µg/mL] | MIC [16] [µg/mL] | MIC [17] [µg/mL] | MIC [18] [µg/mL] | MIC [19] [µg/mL] | Solubility ([20]; acetone) | also measured
COC1=C(C)C(=O)C2=C(C1=O)[C@H](CNC(=O)C(C)=O)N1C[C@H]3C(=O)c4c(O)c(C)c(OC)c(O)c4[C@@H]([C@@H]1C2)N3C [saframycin D] | 50.0 (≈ 90.3 µM) | 6.25 (≈ 11.3 µM) | 50.0 (≈ 90.3 µM) | > 100.0 | > 100.0 | 100.0 (≈ 181 µM) | 50.0 (≈ 90.3 µM) | > 100.0 | > 100.0 | 50.0 (≈ 90.3 µM) | 0.195 (≈ 0.352 µM) | > 100.0 | 50.0 (≈ 90.3 µM) | > 100.0 | 50.0 (≈ 90.3 µM) | > 100.0 | 25.0 (≈ 45.2 µM) | > 100.0 | 100.0 (≈ 181 µM) | Sparingly soluble | Solubility ([20]; chloroform): Easily soluble; Solubility ([20]; esters): Sparingly soluble; Solubility ([20]; ethyl ether): Sparingly soluble; Solubility ([20]; lower alcohols): Easily soluble; Solubility ([20]; n-hexane): Insoluble; Solubility ([20]; pyridine): Easily soluble; Solubility ([20]; water): Insoluble; MIC [21]: 25.0 µg/mL (≈ 45.2 µM); MIC [22]: > 100.0 µg/mL; MIC [23]: 50.0 µg/mL (≈ 90.3 µM); MIC [24]: 50.0 µg/mL (≈ 90.3 µM); MIC [25]: > 100.0 µg/mL; MIC [26]: 50.0 µg/mL (≈ 90.3 µM); MIC [27]: > 100.0 µg/mL; MIC [28]: > 100.0 µg/mL; MIC [29]: > 100.0 µg/mL
COC1=C(C)C(=O)C2=C(C1=O)[C@H](CNC(=O)C(C)=O)N1C[C@@H]3[C@@H](O)c4c(O)c(C)c(OC)c(O)c4[C@H]([C@@H]1C2)N3C [saframycin E] | 12.5 (≈ 22.5 µM) | 25.0 (≈ 45 µM) | 100.0 (≈ 180 µM) | > 100.0 | > 100.0 | 50.0 (≈ 90 µM) | 100.0 (≈ 180 µM) | > 100.0 | > 100.0 | 25.0 (≈ 45 µM) | 100.0 (≈ 180 µM) | > 100.0 | 100.0 (≈ 180 µM) | > 100.0 | 25.0 (≈ 45 µM) | > 100.0 | 100.0 (≈ 180 µM) | > 100.0 | 25.0 (≈ 45 µM) | Sparingly soluble | MIC [30]: > 100.0 µg/mL; MIC [31]: 100.0 µg/mL (≈ 180 µM); MIC [32]: > 100.0 µg/mL; Solubility ([20]; chloroform): Sparingly soluble; Solubility ([20]; esters): Sparingly soluble; Solubility ([20]; lower alcohols): Easily soluble; Solubility ([20]; n-hexane): Insoluble; Solubility ([20]; pyridine): Easily soluble; Solubility ([20]; water): Insoluble; MIC [33]: 25.0 µg/mL (≈ 45 µM); MIC [21]: 25.0 µg/mL (≈ 45 µM); MIC [22]: > 100.0 µg/mL; MIC [23]: 100.0 µg/mL (≈ 180 µM); MIC [24]: 50.0 µg/mL (≈ 90 µM); MIC [25]: > 100.0 µg/mL; MIC [26]: 100.0 µg/mL (≈ 180 µM); MIC [27]: > 100.0 µg/mL; MIC [28]: > 100.0 µg/mL; MIC [29]: > 100.0 µg/mL
